Tested on: Amaranthus tuberculatus (AMATU, tall waterhemp), PPO resistant biotype 2 containing the ΔG210 mutation (w.3)
Assay type: in vivo
Details: azafenidin: in comparison to sensitive biotypes

| Structure (SMILES) | activity on / control of resistant weeds containing the ΔG210 mutation (w.3), in words |
| --- | --- |
| C#CCOc1cc(-n2nc3n(c2=O)CCCC3)c(Cl)cc1Cl [azafenidin, reference compound] | much weaker control |
| CCc1ccc(COc2ccc(-n3c(=O)cc(C(F)(F)F)n(C)c3=O)cc2)c(OC(C)C(=O)OC)c1 (centres unmarked) [(I).1, benzfendizone] | very good activity |
